According to PMC8351955, “Targeting Mycobacterium tuberculosis response to environmental cues for the development of effective antitubercular drugs” (PLoS Biology, 2021):
≈ marks a conversion by molar mass, not a printed value. Where “and” joins values, the source holds several entries; their conditions need not be identical. Identical values can stand only once.

Assays:
[1] = test system: macrophage phagosomal proteolytic activity in BMDMs; assay: Phagosomal maturation assay, DQ-BSA/AF594 beads (proteolysis readout); format: cell-based, mouse; settings: for DQ-BSA/AF594, Average: average of 4 replicates
Description: Carboxyfluorescein (pH readout), DQ-BSA/Alexa Fluor 594 (AF594) (proteolysis readout), and BAC/AF594 (Cl^− readout) beads were generated essentially as previously described, except that 10,10′-Bis[3-carboxylpropyl]-9,9′-biacridinium dinitrate di-NHS ester (BAC-SE) was purchased from emp Biotech LLC. BMDMs were isolated from C57BL/6J mice (The Jackson Laboratory) and maintained as described above. A quantity of 2 × 10^5 macrophages/well were seeded into 96-well clear bottom black plates and utilized in assays 1 to 2 days post-seeding. […] Assay buffer consisted of PBS (pH 7.2), supplemented with 5% FBS, 5 mM dextrose, 1 mM CaCl2, 2.7 mM KCl, and 0.5 mM MgCl2 in the case of assays with the carboxyfluorescein or DQ-BSA/AF594 beads. For assays with the BAC/AF594 beads, assay buffer consisted of PBS (pH 7.2), supplemented with 5% FBS, 5 mM dextrose, 1 mM calcium acetate, 1.35 mM K2SO4, and 0.5 mM MgSO4 [9]. Sensor beads at approximately 2 to 5 beads/macrophage in appropriate assay buffer were finally added, with data acquisition on a Biotek Synergy H1 microplate reader with bottom read signal detection started within 2 to 3 minutes of bead addition. Excitation/emission wavelengths were 450 nm/520 nm and 490 nm/520 nm for carboxyfluorescein, 490 nm/520 nm for DQ-BSA, 365 nm/505 nm for BAC, and 590 nm/617 nm for AF594. Each experiment was run with a total of 3 to 5 replicate wells/condition, with temperature maintained at 37°C throughout the assay. Wells were read every 2 minutes for 2 hours for the carboxyfluorescein bead assays, every 2 minoutes for 4 hours for the DQ-BSA/AF594 bead assays, and every 1 minute for 2 hours for the BAC/AF594 bead assays. Analyses of the results were performed as previously described.

[2] = Kinetic aqueous solubility; format: physicochemical; settings: pH 7.4 phosphate buffered saline; read-out: kinetic aqueous solubility (S)
Description: Assays examining mouse and human liver microsomal stability, kinetic aqueous solubility, mouse and human plasma protein binding and stability, and human cytochrome P450 inhibition characteristics of the compounds were run by BioDuro (San Diego, CA), using standard protocols as previously described [37]. hERG inhibition assays were also performed by BioDuro.

## CCSc1ncc(CN2CCN(c3nc4ccccc4o3)CC2)cn1 [C6, 2-(4-((2-(ethylthio)pyrimidin-5-yl)methyl)piperazin-1-yl)benzo[d]oxazole]
[1]; 10 μM, uninfected BMDMs
  Effect on macrophage phagosomal proteolytic activity: did not affect
[1]; Time 0 minutes
  DQ-BSA/AF594, single replicates (Rep 1-4): 0.14 and 0.1347 and 0.1424 and 0.1346
[1]; Time 2 minutes
  DQ-BSA/AF594, single replicates (Rep 1-4): 0.135 and 0.1275 and 0.1349 and 0.128
[1]; Time 4 minutes
  DQ-BSA/AF594, single replicates (Rep 1-4): 0.1412 and 0.1359 and 0.1424 and 0.1318
[1]; time 0 minutes
  DQ-BSA/AF594, Average: 0.1379
[1]; time 2 minutes
  DQ-BSA/AF594, Average: 0.1314
[1]; time 4 minutes
  DQ-BSA/AF594, Average: 0.1378
[1]; time 6 minutes
  DQ-BSA/AF594, single replicates (Rep 1-4): 0.1434 and 0.1398 and 0.1395 and 0.1344
  DQ-BSA/AF594, Average: 0.1393
[1]; time 8 minutes
  DQ-BSA/AF594, single replicates (Rep 1-4): 0.1391 and 0.1428 and 0.1447 and 0.1317
  DQ-BSA/AF594, Average: 0.1396
[1]; time 10 minutes
  DQ-BSA/AF594, single replicates (Rep 1-4): 0.146 and 0.145 and 0.1422 and 0.1332
  DQ-BSA/AF594, Average: 0.1416
[1]; time 12 minutes
  DQ-BSA/AF594, single replicates (Rep 1-4): 0.1443 and 0.1415 and 0.1428 and 0.1313
  DQ-BSA/AF594, Average: 0.14
[1]; time 14 minutes
  DQ-BSA/AF594, single replicates (Rep 1-4): 0.1461 and 0.1457 and 0.1422 and 0.1412
  DQ-BSA/AF594, Average: 0.1438
[1]; time 16 minutes
  DQ-BSA/AF594, single replicates (Rep 1-4): 0.1457 and 0.1504 and 0.1476 and 0.1404
  DQ-BSA/AF594, Average: 0.146
[1]; time 18 minutes
  DQ-BSA/AF594, single replicates (Rep 1-4): 0.152 and 0.1539 and 0.1536 and 0.1434
  DQ-BSA/AF594, Average: 0.1507
[1]; time 20 minutes
  DQ-BSA/AF594, single replicates (Rep 1-4): 0.1544 and 0.1557 and 0.1584 and 0.1468
  DQ-BSA/AF594, Average: 0.1538
[1]; time 22 minutes
  DQ-BSA/AF594, single replicates (Rep 1-4): 0.1647 and 0.1693 and 0.1637 and 0.1551
  DQ-BSA/AF594, Average: 0.1632
[1]; time 24 minutes
  DQ-BSA/AF594, single replicates (Rep 1-4): 0.178 and 0.18 and 0.1857 and 0.1719
  DQ-BSA/AF594, Average: 0.1789
[1]; time 26 minutes
  DQ-BSA/AF594, single replicates (Rep 1-4): 0.2064 and 0.2113 and 0.205 and 0.1944
  DQ-BSA/AF594, Average: 0.2043
[1]; time 28 minutes
  DQ-BSA/AF594, single replicates (Rep 1-4): 0.2506 and 0.2446 and 0.2477 and 0.2339
  DQ-BSA/AF594, Average: 0.2442
[1]; time 30 minutes
  DQ-BSA/AF594, single replicates (Rep 1-4): 0.3139 and 0.29 and 0.311 and 0.2857
  DQ-BSA/AF594, Average: 0.3002
[2]
  solubility kinetic: 76.4 µM (≈ 27.2 µg/mL)
